Reference: ChEMBL document CHEMBL4823254, “Tetrahydroquinoline-Capped Histone Deacetylase 6 Inhibitor SW-101 Ameliorates Pathological Phenotypes in a Charcot-Marie-Tooth Type 2A Mouse Model” (J Med Chem, 2021)
Calls of active or inactive are those of the source. The rule behind the calls is not given here.

Assays:
[1] = Cmax in C57BL/6J mouse brain at 15 mg/kg, ip; assay type: ADME, organism-based; parameters: route intraperitoneal, dose 15 mg/kg
[2] = Half life in mouse liver s9 fraction; assay type: ADME, subcellular
[3] = Cmax in C57BL/6J mouse plasma at 15 mg/kg, ip; assay type: ADME, organism-based; parameters: route intraperitoneal, dose 15 mg/kg
Histone deacetylase 5 = Histone deacetylase 5 (Homo sapiens, UniProt Q9UQL6); assay: Inhibition of recombinant human HDAC5 using Boc-Lys(TFA)-AMC as substrate preincubated for 10 mins followed by substrate addition and measured after 30 mins by fluorescence-based assay
Histone deacetylase 5, sequence (Q9UQL6 whole entry): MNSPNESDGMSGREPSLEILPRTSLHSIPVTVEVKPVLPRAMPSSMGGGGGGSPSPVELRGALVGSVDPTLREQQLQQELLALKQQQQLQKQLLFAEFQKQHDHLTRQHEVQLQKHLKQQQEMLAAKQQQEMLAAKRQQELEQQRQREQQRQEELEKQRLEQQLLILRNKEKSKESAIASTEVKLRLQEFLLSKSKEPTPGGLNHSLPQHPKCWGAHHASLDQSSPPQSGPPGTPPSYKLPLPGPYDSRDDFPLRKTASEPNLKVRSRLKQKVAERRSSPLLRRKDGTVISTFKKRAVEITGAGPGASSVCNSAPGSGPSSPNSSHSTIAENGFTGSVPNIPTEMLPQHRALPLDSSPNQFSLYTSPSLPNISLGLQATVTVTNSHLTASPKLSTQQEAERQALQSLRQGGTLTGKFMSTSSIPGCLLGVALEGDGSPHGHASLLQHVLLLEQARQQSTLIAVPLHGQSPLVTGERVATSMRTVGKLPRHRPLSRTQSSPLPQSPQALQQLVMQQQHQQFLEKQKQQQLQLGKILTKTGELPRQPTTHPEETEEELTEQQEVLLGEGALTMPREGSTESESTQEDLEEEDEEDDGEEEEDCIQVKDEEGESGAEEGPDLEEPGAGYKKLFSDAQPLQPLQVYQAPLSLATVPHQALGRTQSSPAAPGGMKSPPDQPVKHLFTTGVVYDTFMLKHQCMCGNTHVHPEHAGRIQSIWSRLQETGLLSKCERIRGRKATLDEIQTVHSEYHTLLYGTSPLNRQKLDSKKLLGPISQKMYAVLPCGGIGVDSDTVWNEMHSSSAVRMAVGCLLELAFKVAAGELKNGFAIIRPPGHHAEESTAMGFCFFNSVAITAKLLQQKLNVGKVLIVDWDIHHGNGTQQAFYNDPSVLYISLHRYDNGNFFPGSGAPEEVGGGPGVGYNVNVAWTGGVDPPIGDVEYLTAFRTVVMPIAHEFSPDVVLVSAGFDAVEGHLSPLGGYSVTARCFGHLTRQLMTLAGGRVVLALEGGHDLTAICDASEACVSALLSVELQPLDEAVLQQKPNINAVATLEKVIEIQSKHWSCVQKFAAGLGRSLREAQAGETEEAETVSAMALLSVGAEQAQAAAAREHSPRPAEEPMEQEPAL

[4] = Total AUC (0 to infinity) in C57BL/6J mouse brain at 15 mg/kg, ip; assay type: ADME, organism-based; parameters: time AUCmax, route intraperitoneal, dose 15 mg/kg
[5] = Toxicity in mouse assessed as adverse effect at 10 to 20 mg/kg, ip administered for 3 days every 12 hrs; assay type: organism-based; conditions: in vivo, 72 h, dose 10-20 mg/kg, time 3 day
[6] = Tmax in C57BL/6J mouse plasma at 15 mg/kg, ip; assay type: ADME, organism-based
[7] = Stability in CD1 mouse pooled liver microsomes assessed as parent compound remaining measured at 60 mins in presence of NADPH by LC-MS/MS analysis; assay type: ADME, Microsome; conditions: CD1, mouse, pooled liver microsomes, read-out: Stabilty
Histone deacetylase 3 = Histone deacetylase 3 (Homo sapiens, UniProt O15379); assay: Inhibition of recombinant human HDAC3 using Ac-GAK(Ac)-AMC as substrate preincubated for 10 mins followed by substrate addition and measured after 30 mins by fluorescence-based assay
Histone deacetylase 3, sequence (O15379 whole entry): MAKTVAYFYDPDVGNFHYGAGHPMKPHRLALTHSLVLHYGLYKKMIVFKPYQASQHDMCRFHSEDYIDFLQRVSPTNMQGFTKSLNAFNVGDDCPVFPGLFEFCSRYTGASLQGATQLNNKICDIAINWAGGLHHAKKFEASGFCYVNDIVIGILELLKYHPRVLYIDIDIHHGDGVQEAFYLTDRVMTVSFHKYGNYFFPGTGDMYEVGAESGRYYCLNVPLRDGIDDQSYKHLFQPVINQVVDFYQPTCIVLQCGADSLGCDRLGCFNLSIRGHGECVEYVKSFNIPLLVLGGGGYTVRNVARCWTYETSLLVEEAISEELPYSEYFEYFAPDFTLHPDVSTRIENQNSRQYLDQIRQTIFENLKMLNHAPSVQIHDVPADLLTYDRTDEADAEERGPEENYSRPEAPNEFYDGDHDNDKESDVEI

[8] = target: T1, Protein deacetylase HDAC6 (Mus musculus) (UniProt Q9Z2V5); assay: In vivo inhibition of HDAC6 in hMFN2-induced CMT2A transgenic mouse model assessed as increase in acetylated tubulin in distal sciatic nerve tissue at 20 mg/kg, ip qd administered for 22 weeks when treated prior with compound dissolved in PBS/PEG400/Tween80/EtOH (50/35/10/5) wt% as vehicle by Western blot analysis; assay type: functional, organism-based
T1 sequence (whole entry): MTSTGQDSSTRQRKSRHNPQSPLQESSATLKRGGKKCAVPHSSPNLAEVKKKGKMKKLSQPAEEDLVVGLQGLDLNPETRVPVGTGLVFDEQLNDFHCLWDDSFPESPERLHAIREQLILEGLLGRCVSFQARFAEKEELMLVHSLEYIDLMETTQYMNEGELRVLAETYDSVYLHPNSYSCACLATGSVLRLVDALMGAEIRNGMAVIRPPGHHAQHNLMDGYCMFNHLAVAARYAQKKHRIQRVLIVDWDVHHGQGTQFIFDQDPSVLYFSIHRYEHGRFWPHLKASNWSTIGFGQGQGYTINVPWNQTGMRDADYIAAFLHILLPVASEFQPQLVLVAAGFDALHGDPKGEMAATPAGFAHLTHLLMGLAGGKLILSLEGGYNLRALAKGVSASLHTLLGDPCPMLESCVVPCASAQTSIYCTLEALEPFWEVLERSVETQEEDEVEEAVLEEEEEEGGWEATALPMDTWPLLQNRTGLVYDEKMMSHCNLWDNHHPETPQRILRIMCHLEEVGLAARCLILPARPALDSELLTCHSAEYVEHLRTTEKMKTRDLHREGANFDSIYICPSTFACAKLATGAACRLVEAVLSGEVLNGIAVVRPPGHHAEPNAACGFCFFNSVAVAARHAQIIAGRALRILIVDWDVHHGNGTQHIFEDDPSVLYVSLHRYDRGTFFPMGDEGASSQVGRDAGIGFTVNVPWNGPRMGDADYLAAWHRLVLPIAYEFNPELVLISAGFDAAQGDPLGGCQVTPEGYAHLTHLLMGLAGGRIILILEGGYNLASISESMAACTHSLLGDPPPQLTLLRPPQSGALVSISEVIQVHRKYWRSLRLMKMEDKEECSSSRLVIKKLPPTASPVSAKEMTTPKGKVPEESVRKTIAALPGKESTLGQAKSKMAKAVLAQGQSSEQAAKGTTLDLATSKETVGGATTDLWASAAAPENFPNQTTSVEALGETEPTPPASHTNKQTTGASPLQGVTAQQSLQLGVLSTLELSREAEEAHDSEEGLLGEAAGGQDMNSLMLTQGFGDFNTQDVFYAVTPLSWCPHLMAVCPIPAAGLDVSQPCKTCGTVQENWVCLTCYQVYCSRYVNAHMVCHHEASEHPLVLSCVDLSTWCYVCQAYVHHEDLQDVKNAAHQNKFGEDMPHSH

[9] = Genotoxicity in Salmonella typhimurium TA100 at 5 to 100 uM in absence of liver S9 fraction by Ames test; assay type: toxicity; conditions: salmonella enterica subsp. enterica serovar typhimurium, s9, 100 µM; dose 5-100 µM
[10] = Genotoxicity in Salmonella typhimurium TA1537 at 5 to 100 uM in presence of liver S9 fraction by Ames test; assay type: toxicity; conditions: salmonella enterica subsp. enterica serovar typhimurium, s9, 100 µM; dose 5-100 µM

## NC(=O)c1ccc2c(c1)CCCN2Cc1ccc(C(=O)NO)cc1
[1]
  Cmax: 223 ng/mL
[2]
  half-life: 213 min
[3]
  Cmax: 3580 ng/mL
Histone deacetylase 5
  IC50: 276 nM
[4]
  AUC(0-inf): 280 ng·h/mL
[5]
  Activity: Non-Toxic
[6]
  Tmax: 4.8 min
[7]
  remaining at 1 h: 56%
Histone deacetylase 3
  IC50: 235 nM
[8]
  inhibition: inactive
[9]
  Activity: Non-Toxic
[10]
  Activity: Non-Toxic
